From PMC12040169 (PLOS Biology, 2025) come the findings set out here.

A word on the viability: it is a read-out of living cells in per cent, often relative to untreated cells.

The first series is described as follows: in vitro. Conditions: human, hela cells, % viability.
Regarding `O=C(Nc1ccccc1)c1ccc(-c2ccccc2)cc1` [CBK261346], the viability at 28.5 h, 10 µM worked out at 107%. Take `CCCNC(=O)NCCc1cccs1` [CBK043675]: the viability at 28.5 h, 10 µM came out at 102%. On the same count and under the same terms, with `CCN(CC(=O)NCc1ccc(F)cc1)S(=O)(=O)c1ccc(Cl)s1` [CBK305837] the figure was 88.2%; with `COc1ccc(F)cc1-c1ccc(S(=O)(=O)Nc2nc(CC(=O)N3CCOCC3)cs2)cc1` [CBK200031], 88%.

`O=c1[nH]nc(-c2cccs2)n1-c1cccnc1` [CBK283854]: the viability at 28.5 h, 10 µM was determined as 101%. On to `CC(=O)NCCSc1cccc(C(F)(F)F)n1` [CBK105299], for which the viability at 28.5 h, 10 µM is 112%.

For the compound `CC(=O)Nc1ccc(S(=O)(=O)N2CCN(c3ccc([N+](=O)[O-])c(NC4CC4)c3)CC2)cc1` [CBK264439], the viability at 28.5 h, 10 µM is 97.3%. As for `CN1C[C@@H](C(=O)NC(C)(C)C)[C@@]2(CCc3ccccc3C(=O)N2)C1` [CBK284796], the viability at 28.5 h, 10 µM amounted to 99%.

Turning to `CN(C)CC(=O)N1CCN(c2ccc(C(=O)c3ccccc3)cc2[N+](=O)[O-])CC1` [CBK296699], the viability at 28.5 h, 10 µM worked out at 85.4%.

For the compound `COc1ccc(Cn2nc(NC(=O)c3cnc4ccccc4n3)c3ccccc32)cc1` [CBK048343], the viability at 28.5 h, 10 µM was 93%. With `Cc1ccc(N(C(=O)COc2ccc(C(C)(C)C)cc2)C2C=CS(=O)(=O)C2)cc1` (stereo not drawn) [CBK265811], the viability at 28.5 h, 10 µM was found to be 105%.

`CN(C)C(=O)c1ccc(-c2ccc3c(c2)COC(C2CCN(C(=O)Cc4ccc(C#N)cc4)CC2)O3)cc1` (stereo not drawn) [CBK149760]: the viability at 28.5 h, 10 µM came to 107%.

In the case of `CN(C)CCN(Cc1ccccc1)C(=O)Nc1cccnc1` [CBK145047], the viability at 28.5 h, 10 µM was 95%. Take `OC1(c2ccc(F)cc2)COC2(CCNCC2)C1` (stereo not drawn) [CBK284214]: the viability at 28.5 h, 10 µM came out at 93.6%. The same measure, in the same setting: next, `COc1ccccc1N(CC(O)CN1CCCC1)S(=O)(=O)c1ccccc1` (stereo not drawn) [CBK264829]: 114%. Turning to `Nc1ncc(-c2cccc(Br)c2)nc1NC1CCOCC1` [CBK063854], the viability at 28.5 h, 10 µM came out at 108%. With `Cc1cc(C(=O)N2CCn3cc(C(F)(F)F)nc3C2)on1` [CBK282430], the viability at 28.5 h, 10 µM was 101%.

`CCCNC(=O)C[C@@H]1CCN(C(=O)c2ccnc(Cl)c2)C[C@@H]1CC` [CBK289138]: the viability at 28.5 h, 10 µM turned out to be 99.3%. `COc1ccc(CNC(=O)NC(=O)C2CCN(C(C)=O)CC2)c(OC)c1` [CBK034839]: the viability at 28.5 h, 10 µM was 96.9%. With `CC(C)c1ccc(CNC(=O)c2ccc3[nH]ccc3c2)cc1` [CBK161754], the viability at 28.5 h, 10 µM amounted to 96.1%.

Take `COC(=O)Nc1ccc2c(c1)N(C(=O)CCN(C)C)c1ccccc1CC2` [CBK262972C]: the viability at 28.5 h, 10 µM was determined as 87.2%. Regarding `CCOc1ccc(N(Cc2cc3cc(C)ccc3nc2O)S(=O)(=O)c2ccccc2)cc1` [CBK267924], the viability at 28.5 h, 10 µM is 120%. In the case of `C[C@@H]1CN(C(=O)OCCn2cccc2)C[C@H](C)O1` [CBK200123], the viability at 28.5 h, 10 µM came to 82.2%. In the case of `O=C(C[C@@H]1O[C@H](CNCc2cccc(Cl)c2)[C@@H](O)[C@H]1O)N1CCc2ccccc21` [CBK288918], the viability at 28.5 h, 10 µM amounted to 89%. Regarding `O=C(O)c1cccc(N2C(=O)CC(n3cnc4ccccc43)C2=O)c1` (stereo not drawn) [CBK291145], the viability at 28.5 h, 10 µM was 89.8%.

With `COc1ccccc1-c1ccc(CC2(C(=O)NCC3CCCCC3)CCOCC2)cc1` [CBK286519], the viability at 28.5 h, 10 µM turned out to be 98.5%. On to `CN(CC(=O)Nc1cncc(OC2CCNCC2)n1)C(=O)c1ccccc1` [CBK028440T], for which the viability at 28.5 h, 10 µM turned out to be 105%. As for `FC(F)(F)c1ccnc(Sc2ccccn2)n1` [CBK093786], the viability at 28.5 h, 10 µM is 99.3%.

For `CN(C)CCn1c(=O)[nH]c2ncc(-c3ccoc3)nc21` [CBK064294], the viability at 28.5 h, 10 µM amounted to 92.6%. Take `CN1CCN([C@H]2[C@@H]3OC[C@@H](O3)[C@@H](NCc3ccc(CO)o3)[C@@H]2O)CC1` [CBK288823]: the viability at 28.5 h, 10 µM stood at 91.5%. As to `O=C(O)C[C@H](CNC(=O)COc1ccc2ccc(=O)oc2c1)c1ccc(Cl)cc1` [CBK286702], the viability at 28.5 h, 10 µM is 113%.

With `N#CCCN(C(=O)NCCOc1ccccc1)C1CCCCC1` [CBK156374], the viability at 28.5 h, 10 µM amounted to 94.9%. As to `COc1ccc2c(c1)c(C(=O)N1CCn3nc(CO)cc3C1)c(C)n2C` [CBK306764], the viability at 28.5 h, 10 µM was 88.5%.

`COc1ccc(CN(C)c2c(C)nc3c(OCC(=O)N4CCOCC4)cccn23)cc1` [CBK147469]: the viability at 28.5 h, 10 µM was 102%. As for `CCCc1[nH]nc(O)c1Cc1cc(C(F)(F)F)ccc1Cl` [CBK075032], the viability at 28.5 h, 10 µM stood at 96.9%. In the case of `CO/C(=N\S(=O)(=O)c1ccccc1)c1ccccc1` [CBK023221], the viability at 28.5 h, 10 µM was determined as 89.4%. On to `O=C(NCCN1CCOCC1)c1cc(-c2ccccc2)on1` [CBK267479], for which the viability at 28.5 h, 10 µM was 89.5%. As to `O=C(/C=C/c1ccccc1)NC(=S)Nc1cccc(-c2nc3ncccc3o2)c1` [CBK263742], the viability at 28.5 h, 10 µM worked out at 103%. Turning to `CCNC(=O)c1cc2c(=O)n3ccccc3nc2n(C)c1=N` [CBK287762], the viability at 28.5 h, 10 µM turned out to be 90.7%.

`Cc1c(C(=O)NC2(c3ccc(F)cc3)CCCC2)cnn1C` [CBK283978]: the viability at 28.5 h, 10 µM was determined as 90.9%. On the same count and under the same terms, next, `CCc1nc2ccc(C(=O)Nc3ccc(OC)c(OC)c3)cn2c1N(CC)C(=O)NCCc1ccccc1` [CBK147035]: 97.1%; `OC(COc1cccc2c1CCCC2)CN1CCC(O)(c2ccccc2)CC1` (stereo not drawn) [CBK003585]: 87.3%. On to `COc1ccc(O)c(CN(C)CCN(C)C)c1` [CBK261854], for which the viability at 28.5 h, 10 µM was found to be 89.4%. For `COC(=O)c1oc(-c2ccc(OC)cc2)c(-c2ccc(OC)cc2)c1C(N)=O` [CBK001957], the viability at 28.5 h, 10 µM amounted to 98.7%. With `O=C(Nc1ccccc1[N+](=O)[O-])c1cc(S(=O)(=O)Nc2ccccn2)ccc1Cl` [CBK263229], the viability at 28.5 h, 10 µM was found to be 87.8%. As to `COc1nc(OC)nc(OC2=CC(=O)CC(C)(C)C2)n1` [CBK020772], the viability at 28.5 h, 10 µM turned out to be 95.5%. Consider `N=C1OC2CSCC2N1C(=O)C1(c2ccccc2)CC1` (stereo not drawn) [CBK284524], for which the viability at 28.5 h, 10 µM was 106%.

For `O=S(=O)(Nc1cccc(-c2cnco2)c1)c1cc(C(F)(F)F)cc(C(F)(F)F)c1` [CBK067127], the viability at 28.5 h, 10 µM turned out to be 109%. For the compound `O=C(O)CSc1ccccc1[N+](=O)[O-]` [CBK111324], the viability at 28.5 h, 10 µM was determined as 86.8%. `CCN(CC)C(=O)Cn1nc(C)n2c(cc3sc(C)cc32)c1=O` [CBK284064]: the viability at 28.5 h, 10 µM stood at 96.1%.

For `COCC1CN(C(=O)Nc2ncc(Cc3ccc(C)c(Cl)c3)s2)CCO1` (stereo not drawn) [CBK306286], the viability at 28.5 h, 10 µM is 84%.

As to `CSc1nc(C(=O)NC2CCCN(c3ncccn3)C2)cs1` (stereo not drawn) [CBK307198], the viability at 28.5 h, 10 µM amounted to 98.7%.

Regarding `O=C(O)c1ccccc1Nc1c2ccccc2nc2ccccc12` [CBK263921], the viability at 28.5 h, 10 µM was found to be 96%.

Take `COc1ccc(C(=O)C2=C(O)C(=O)N(CCN(C)C)C2c2ccncc2)c(C)c1` (stereo not drawn) [CBK264867]: the viability at 28.5 h, 10 µM turned out to be 92.5%. As for `CN(CC(=O)Nc1sc2c(c1C#N)CCCC2)Cc1cnn(C)c1` [CBK304618], the viability at 28.5 h, 10 µM amounted to 92.8%. Still for that read-out and setting: next, `COc1ccc(-c2nc3ccccn3c2CN2CCC(C(=O)O)CC2)cc1` [CBK287052]: 88.4%; `CC1CCCCN1CCCNc1cc(NS(=O)(=O)c2cn(C)cn2)cc2ccoc12` (stereo not drawn) [CBK067940C]: 94.5%. Regarding `O=C(Nn1cnnc1)c1ccccc1CCc1ccccc1` [CBK268578], the viability at 28.5 h, 10 µM was found to be 87.7%. As for `Cn1nccc1C(O)c1cc2n(n1)CCCN(C(=O)Cc1cccs1)C2` (stereo not drawn) [CBK306930], the viability at 28.5 h, 10 µM was found to be 104%. Regarding `COc1ccnc(N2CCN(C(=O)c3cnn(C)c3C3CC3)CC2)n1` [CBK304900], the viability at 28.5 h, 10 µM worked out at 85.3%. Same read-out and setting: with `c1ccc(CN2CCN(c3ccc(Nc4cc(-c5ccncc5)ncn4)cc3)CC2)cc1` [CBK037727] the figure was 92.3%; with `O=C(C[C@@H]1O[C@H](CNCc2cccc(Cl)c2)[C@@H](O)[C@H]1O)N1CCOCC1` [CBK288905], 77.3%. With `NCCNc1ccc(C(=O)Nc2cccc(Cl)c2)cc1[N+](=O)[O-]` [CBK263953], the viability at 28.5 h, 10 µM was 85.3%. `Nc1nc(N)nc(Cn2c(-c3nonc3N)nc3ccccc32)n1` [CBK263072]: the viability at 28.5 h, 10 µM is 105%.

As for `CC1(C)Cc2ccccc2C(NCCC(=O)O)=N1` [CBK023412], the viability at 28.5 h, 10 µM came to 97.9%.

As for `O=S(=O)(c1ccc(C(F)(F)F)cc1Cl)N1CCCN(Cc2ccnc3ccccc23)CC1` [CBK062942], the viability at 28.5 h, 10 µM came out at 101%.

As for `Cc1ccnc(NCC2CCN(CC(=O)Nc3cc(C)no3)C2)c1` (stereo not drawn) [CBK306121], the viability at 28.5 h, 10 µM worked out at 91.3%. For the compound `COc1ccnc(NC(c2cnn(C)c2)[C@H]2C[C@@H](O)C2)n1` (stereo partly drawn) [CBK306617], the viability at 28.5 h, 10 µM came out at 97.8%. On to `Cc1ccc(C(=O)N2CCC3(CC2)CNC(=O)c2ccccc2O3)o1` [CBK285328], for which the viability at 28.5 h, 10 µM came to 88.3%. Turning to `Cc1cc(C)nc(NS(=O)(=O)c2ccc(Nc3ccc4nonc4c3[N+](=O)[O-])cc2)n1` [CBK261444], the viability at 28.5 h, 10 µM came to 103%. As for `COc1ccc([C@@]23CCN(C(=O)c4ccc(Cl)c(Cl)c4)C[C@@H]2CN(C)C3)cc1OC` [CBK074308T], the viability at 28.5 h, 10 µM amounted to 99.4%.

For `N#CCCCN1CCC(Oc2cncc(OCc3cccnc3)n2)C1` (stereo not drawn) [CBK084466], the viability at 28.5 h, 10 µM stood at 105%. `CCN1CCN(C(=O)CN(CC)S(=O)(=O)c2ccc3ccccc3c2)CC1` [CBK267913]: the viability at 28.5 h, 10 µM came out at 101%.

For `O=C(/C=C/c1cccnc1)Nc1cncc(OC2CCNCC2)n1` [CBK038919T], the viability at 28.5 h, 10 µM was found to be 96.9%.

On to `COc1ccc(-c2nnc(S)n2/N=C\c2ccc(C(=O)O)cc2)cc1` [CBK264419], for which the viability at 28.5 h, 10 µM was determined as 92.4%.

Take `COc1ccc(C(=O)Nc2c(C)noc2C)c(OC)n1` [CBK200300]: the viability at 28.5 h, 10 µM came to 104%.

The series is the same for the next values; noted with them: human, hela cells, % viability, bulk resorufin, single well.
With `COc1ccc2[nH]cc(CC(=O)Nc3cccc(-c4ccc5c(c4)COC4(CCNCC4)O5)c3)c2c1` [CBK105859], the viability at 28.5 h, 10 µM was 78%. As to `COc1ccc(OC(=O)Nc2nn(Cc3ccc(C#N)cc3)c3ccc(C)cc23)cc1` [CBK048654], the viability at 28.5 h, 10 µM was 74.4%.
